In ChEMBL document CHEMBL1139034, “Synthesis and antihyperglycemic evaluation of various protoberberine derivatives” (2006):
Calls of active or inactive are those of the source. No cut-off for these calls is given here.

Legend:
Escherichia coli [1] = experiment: Antibacterial activity against Escherichia coli upto 50 ug/mL; format: functional, organism-based
[2] = target: Sulfonylurea receptor 1, Kir6.2 (Homo sapiens) (UniProt Q14654+Q09428); experiment: Binding affinity to sulfonylurea receptor in pancreatic islet beta cell membranes
[3] = Reduction of blood glucose level in alloxan induced diabetic mice at 200 mg/kg; format: functional, organism-based; design: dose 200 mg/kg; conditions: Mus musculus, target entry is the homologue from another species
Escherichia coli [4] = experiment: Antibacterial activity against Escherichia coli; format: functional

| SMILES | Activity (Escherichia coli [1]) | Activity [2] | Activity [3] | MIC (Escherichia coli [4]) |
| --- | --- | --- | --- | --- |
| CC[N+]12CCc3cc4c(cc3C1Cc1ccc(OC)c(OC)c1C2)OCO4 (stereo unspecified) | inactive | inactive |  |  |
| COc1ccc2cc3[n+](cc2c1OC)CCc1cc(O)c(O)cc1-3 | inactive | inactive |  |  |
| COc1ccc2c(c1OC)C[N+]1([O-])CCc3cc4c(cc3C1C2)OCO4 (stereo unspecified) | inactive | Active | 23 mg/dL |  |
| COc1cc2c(cc1OC)-c1cc3ccc(OC)c(OC)c3c[n+]1CC2 | inactive | inactive |  |  |
| c1ccc(COc2ccc3c[n+]4c(cc3c2)-c2cc3c(cc2CC4)OCO3)cc1 | inactive | inactive |  |  |
| COc1ccc2cc3[n+](cc2c1OC)CCc1cc2c(cc1-3)OCO2.[Cl-] [BERBERINE CHLORIDE] |  | Active | 61 mg/dL | 5 µg/mL |
| COc1ccc2cc3[n+](cc2c1)CCc1cc2c(cc1-3)OCO2 | inactive | inactive |  |  |
| c1ccc2c(c1)CC1c3cc4c(cc3CCN1C2)OCO4 (stereo unspecified) | inactive | inactive |  |  |
| COc1ccc2c(c1)C(=O)N(CCc1ccc(S(=O)(=O)NC(=O)NC3CCCCC3)cc1)C(=O)C2(C)C |  | Active | 162 mg/dL |  |
| COc1ccc2cc3[n+](cc2c1O)CCc1cc2c(cc1-3)OCO2 | inactive | Active | 12 mg/dL |  |
| COc1ccc2c(c1OC)C[N+]1(Cc3ccccc3)CCc3cc4c(cc3C1C2)OCO4 (stereo unspecified) | inactive | Active | 146 mg/dL |  |
| COc1ccc2c(c1OC)C[N+]1(C)CCc3cc4c(cc3C1C2)OCO4 (stereo unspecified) | inactive | inactive |  |  |
| COc1cccc2cc3[n+](cc12)CCc1cc2c(cc1-3)OCO2 | inactive | inactive |  |  |
| c1ccc(C[N+]23CCc4cc5c(cc4C2Cc2ccccc2C3)OCO5)cc1 (stereo unspecified) | inactive | Active |  |  |
| COc1ccc2c(c1OC)CN1CCc3cc4c(cc3[C@@H]1C2)OCO4 | inactive | inactive |  |  |
| COc1ccc2cc3[n+](cc2c1OC)CCc1cc(OC(C)=O)c(OC(C)=O)cc1-3 | inactive | inactive |  |  |
| c1ccc2c[n+]3c(cc2c1)-c1cc2c(cc1CC3)OCO2 | inactive | Active | 67 mg/dL |  |
| COc1ccc2c[n+]3c(cc2c1)-c1cc2c(cc1CC3)OCO2 | inactive | inactive |  |  |
